Our source for the IC50 values is US20260022142A1, “MACROCYCLIC IMMUNOMODULATORS” (Bristol-Myers Squibb Company, priority 2022, published 2026).

Bridge positions count the residues as written; N and C are the ends. Square brackets hold non-standard residues; d marks the D form. Peptide text beside a SMILES is read from it. * marks the point of attachment. Bip = N[C@@H](Cc1ccc(-c2ccccc2)cc1)C(=O)O; Tyr(3-F) = N[C@@H](Cc1ccc(O)c(F)c1)C(=O)O; Tyr(3-Me) = Cc1cc(C[C@H](N)C(=O)O)ccc1O; Phe(3-Me) = Cc1cccc(C[C@H](N)C(=O)O)c1; Val(3-OH) = CC(C)(O)[C@H](N)C(=O)O; Cha = N[C@@H](CC1CCCCC1)C(=O)O; hSer = N[C@@H](CCO)C(=O)O; Carboxymethyl = O=C(O)C*; Orn = NCCC[C@H](N)C(=O)O; Aun = NCCCCCCCCCCC(=O)O; Dab = NCC[C@H](N)C(=O)O; Dap = NC[C@H](N)C(=O)O

The experiment deals with T1, PD-1/PD-L1 interaction (PE-labeled human PD-L1-Ig binding to Jurkat cell line over-expressing human PD-1) (Homo sapiens, UniProt Q15116).
T1 construct: expressed in transfected cells; host or cells: Jurkat
T1 sequence (Q15116 25-288): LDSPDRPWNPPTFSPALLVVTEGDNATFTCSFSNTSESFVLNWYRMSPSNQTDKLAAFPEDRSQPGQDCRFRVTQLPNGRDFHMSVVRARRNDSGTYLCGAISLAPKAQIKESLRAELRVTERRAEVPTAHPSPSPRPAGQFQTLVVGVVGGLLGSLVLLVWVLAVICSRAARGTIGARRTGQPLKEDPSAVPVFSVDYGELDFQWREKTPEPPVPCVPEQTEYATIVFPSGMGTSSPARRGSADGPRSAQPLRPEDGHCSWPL
Put plainly: Jurkat-PD-1 Cell Binding High-Content Screening Assay (CBA). The format is cell-based. The settings on record: Jurkat cell line over-expressing human PD-1; PE-labeled PD-L1-Ig 20 nM final; read-out: Jurkat hPD1-PDL1 IC50. In short, it runs like this: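 Human PD-L1-Ig carrying a covalent PE label on its Ig tag serves as the probe, applied at 20 nM final to compound-treated (2 h, 37° C) Jurkat-hPD-1 cells in medium with 10% fetal calf serum. After one hour, fixation and nuclear staining precede high-content image analysis.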
As for `Cc1cccc(C[C@@H]2NC(=O)[C@H](CC(=O)O)NC(=O)[C@H](Cc3ccc(OCC(=O)O)cc3)NC(=O)[C@H](CN)NC(=O)CSC[C@@H](C(=O)N[C@@H](CCN)C(=O)NCCCCCCCCCCC(=O)O)NC(=O)[C@H](CCO)NC(=O)[C@H](C(C)C)NC(=O)[C@H](CC3CCCCC3)NC(=O)[C@H](CCN)NC(=O)[C@@H](CC(C)C)NC(=O)[C@H](CCCN)NC(=O)[C@H](Cc3ccc(OCC(=O)O)cc3)NC(=O)[C@H](Cc3ccc(-c4ccccc4)cc3)NC(=O)[C@H](C(C)C)NC2=O)c1` [Compound 2099] ({CH2CO}-[Dap]Y(Carboxymethyl)D[Phe(3-Me)]V[Bip]Y(Carboxymethyl)[Orn][dL][Dab][Cha]V[hSer]C[Dab][Aun]-OH; thioether N-14), the IC50 was 18 nM. For `Cc1cccc(C[C@@H]2NC(=O)[C@H](CC(=O)O)NC(=O)[C@H](Cc3ccc(OCC(=O)O)cc3)NC(=O)[C@H](CN)NC(=O)CSC[C@@H](C(=O)N[C@@H](CCN)C(=O)NCCCCCCCCCCC(=O)O)NC(=O)[C@H](CCO)NC(=O)[C@H](C(C)C)NC(=O)[C@H](CC3CCCCC3)NC(=O)[C@H](CCN)NC(=O)[C@@H](CC(C)C)NC(=O)[C@H](CCCN)NC(=O)[C@H](Cc3ccc(OCC(=O)O)cc3)NC(=O)[C@H](Cc3ccc(-c4ccccc4)cc3)NC(=O)[C@H](Cc3ccc(O)cc3)NC2=O)c1` [Compound 2100] ({CH2CO}-[Dap]Y(Carboxymethyl)D[Phe(3-Me)]Y[Bip]Y(Carboxymethyl)[Orn][dL][Dab][Cha]V[hSer]C[Dab][Aun]-OH; thioether N-14), the IC50 was found to be 13.9 nM.

Regarding `Cc1cccc(C[C@@H]2NC(=O)[C@H](CC(=O)O)NC(=O)[C@H](Cc3ccc(OCC(=O)O)cc3)NC(=O)[C@H](CN)NC(=O)CSC[C@@H](C(=O)N[C@@H](CCN)C(=O)NCCCCCCCCCCC(=O)O)NC(=O)[C@H](CCO)NC(=O)[C@H](C(C)C)NC(=O)[C@H](CC3CCCCC3)NC(=O)[C@H](CCN)NC(=O)[C@@H](CC(C)C)NC(=O)[C@H](CCCN)NC(=O)[C@H](Cc3ccc(OCC(=O)O)cc3)NC(=O)[C@H](Cc3ccc(-c4ccccc4)cc3)NC(=O)[C@H](Cc3ccc(OCC(=O)O)cc3)NC2=O)c1` [Compound 2101] ({CH2CO}-[Dap]Y(Carboxymethyl)D[Phe(3-Me)]Y(Carboxymethyl)[Bip]Y(Carboxymethyl)[Orn][dL][Dab][Cha]V[hSer]C[Dab][Aun]-OH; thioether N-14), the IC50 is 16.2 nM. As for `Cc1cccc(C[C@@H]2NC(=O)[C@H](CC(=O)O)NC(=O)[C@H](Cc3ccc(OCC(=O)O)cc3)NC(=O)[C@H](CN)NC(=O)CSC[C@@H](C(=O)N[C@@H](CCN)C(=O)NCCCCCCCCCCC(=O)O)NC(=O)[C@H](CCO)NC(=O)[C@H](C(C)C)NC(=O)[C@H](CC3CCCCC3)NC(=O)[C@H](CCN)NC(=O)[C@@H](CC(C)C)NC(=O)[C@H](CCCN)NC(=O)[C@H](Cc3ccc(O)cc3)NC(=O)[C@H](Cc3ccc(-c4ccccc4)cc3)NC(=O)[C@H](Cc3ccc(OCC(=O)O)cc3)NC2=O)c1` [Compound 2102] ({CH2CO}-[Dap]Y(Carboxymethyl)D[Phe(3-Me)]Y(Carboxymethyl)[Bip]Y[Orn][dL][Dab][Cha]V[hSer]C[Dab][Aun]-OH; thioether N-14), the IC50 is 29.1 nM. For the compound `CC(C)C[C@H]1NC(=O)[C@H](CCCN)NC(=O)[C@H](Cc2ccc(O)cc2)NC(=O)[C@H](Cc2ccc(-c3ccccc3)cc2)NC(=O)[C@H](Cc2ccc(O)cc2)NC(=O)[C@H](Cc2ccc(O)c(F)c2)NC(=O)[C@H](CC(=O)O)NC(=O)[C@H](Cc2ccc(OCC(=O)O)cc2)NC(=O)[C@H](CCCNC(=N)N)NC(=O)CSC[C@@H](C(=O)N[C@@H](CCN)C(=O)NCCCCCCCCCCC(=O)O)NC(=O)[C@H]([C@@H](C)O)NC(=O)[C@H](C(C)C)NC(=O)[C@H](CC2CCCCC2)NC(=O)[C@H](CCN)NC1=O` [Compound 2103] ({CH2CO}-RY(Carboxymethyl)D[Tyr(3-F)]Y[Bip]Y[Orn][dL][Dab][Cha]VTC[Dab][Aun]-OH; thioether N-14), the IC50 came out at 69.9 nM. For `Cc1cc(C[C@@H]2NC(=O)[C@H](CC(=O)O)NC(=O)[C@H](Cc3ccc(OCC(=O)O)cc3)NC(=O)[C@H](CCCNC(=N)N)NC(=O)CSC[C@@H](C(=O)N[C@@H](CCN)C(=O)NCCCCCCCCCCC(=O)O)NC(=O)[C@H]([C@@H](C)O)NC(=O)[C@H](C(C)C)NC(=O)[C@H](CC3CCCCC3)NC(=O)[C@H](CCN)NC(=O)[C@@H](CC(C)C)NC(=O)[C@H](CCCN)NC(=O)[C@H](Cc3ccc(O)cc3)NC(=O)[C@H](Cc3ccc(-c4ccccc4)cc3)NC(=O)[C@H](Cc3ccc(O)cc3)NC2=O)ccc1O` [Compound 2104] ({CH2CO}-RY(Carboxymethyl)D[Tyr(3-Me)]Y[Bip]Y[Orn][dL][Dab][Cha]VTC[Dab][Aun]-OH; thioether N-14), the IC50 was found to be 22.3 nM.

For `CC(C)C[C@H]1NC(=O)[C@H](CCCN)NC(=O)[C@H](Cc2ccc(OCC(=O)O)cc2)NC(=O)[C@H](Cc2ccc(-c3ccccc3)cc2)NC(=O)[C@H](Cc2ccc(O)cc2)NC(=O)[C@H](Cc2ccc(O)c(F)c2)NC(=O)[C@H](CC(=O)O)NC(=O)[C@H](Cc2ccc(OCC(=O)O)cc2)NC(=O)[C@H](CCCNC(=N)N)NC(=O)CSC[C@@H](C(=O)N[C@@H](CCN)C(=O)NCCCCCCCCCCC(=O)O)NC(=O)[C@H]([C@@H](C)O)NC(=O)[C@H](C(C)C)NC(=O)[C@H](CC2CCCCC2)NC(=O)[C@H](CCN)NC1=O` [Compound 2105] ({CH2CO}-RY(Carboxymethyl)D[Tyr(3-F)]Y[Bip]Y(Carboxymethyl)[Orn][dL][Dab][Cha]VTC[Dab][Aun]-OH; thioether N-14), the IC50 came out at 113 nM. As for `Cc1cc(C[C@@H]2NC(=O)[C@H](CC(=O)O)NC(=O)[C@H](Cc3ccc(OCC(=O)O)cc3)NC(=O)[C@H](CCCNC(=N)N)NC(=O)CSC[C@@H](C(=O)N[C@@H](CCN)C(=O)NCCCCCCCCCCC(=O)O)NC(=O)[C@H]([C@@H](C)O)NC(=O)[C@H](C(C)C)NC(=O)[C@H](CC3CCCCC3)NC(=O)[C@H](CCN)NC(=O)[C@@H](CC(C)C)NC(=O)[C@H](CCCN)NC(=O)[C@H](Cc3ccc(OCC(=O)O)cc3)NC(=O)[C@H](Cc3ccc(-c4ccccc4)cc3)NC(=O)[C@H](Cc3ccc(O)cc3)NC2=O)ccc1O` [Compound 2106] ({CH2CO}-RY(Carboxymethyl)D[Tyr(3-Me)]Y[Bip]Y(Carboxymethyl)[Orn][dL][Dab][Cha]VTC[Dab][Aun]-OH; thioether N-14), the figure is 15.9 nM. As for `CC(C)C[C@H]1NC(=O)[C@H](CCCN)NC(=O)[C@H](Cc2ccc(OCC(=O)O)cc2)NC(=O)[C@H](Cc2ccc(-c3ccccc3)cc2)NC(=O)[C@H](Cc2ccc(O)cc2)NC(=O)[C@H](Cc2ccc(O)c(F)c2)NC(=O)[C@H](CC(=O)O)NC(=O)[C@H](Cc2ccc(OCC(=O)O)cc2)NC(=O)[C@H](CN)NC(=O)CSC[C@@H](C(=O)N[C@@H](CCN)C(=O)NCCCCCCCCCCC(=O)O)NC(=O)[C@H]([C@@H](C)O)NC(=O)[C@H](C(C)C)NC(=O)[C@H](CC2CCCCC2)NC(=O)[C@H](CCN)NC1=O` [Compound 2107] ({CH2CO}-[Dap]Y(Carboxymethyl)D[Tyr(3-F)]Y[Bip]Y(Carboxymethyl)[Orn][dL][Dab][Cha]VTC[Dab][Aun]-OH; thioether N-14), the IC50 was determined as 116 nM. As to `Cc1cc(C[C@@H]2NC(=O)[C@H](CC(=O)O)NC(=O)[C@H](Cc3ccc(OCC(=O)O)cc3)NC(=O)[C@H](CN)NC(=O)CSC[C@@H](C(=O)N[C@@H](CCN)C(=O)NCCCCCCCCCCC(=O)O)NC(=O)[C@H]([C@@H](C)O)NC(=O)[C@H](C(C)C)NC(=O)[C@H](CC3CCCCC3)NC(=O)[C@H](CCN)NC(=O)[C@@H](CC(C)C)NC(=O)[C@H](CCCN)NC(=O)[C@H](Cc3ccc(OCC(=O)O)cc3)NC(=O)[C@H](Cc3ccc(-c4ccccc4)cc3)NC(=O)[C@H](Cc3ccc(O)cc3)NC2=O)ccc1O` [Compound 2108] ({CH2CO}-[Dap]Y(Carboxymethyl)D[Tyr(3-Me)]Y[Bip]Y(Carboxymethyl)[Orn][dL][Dab][Cha]VTC[Dab][Aun]-OH; thioether N-14), the half-maximal inhibitory concentration (IC50) came to 21 nM. `Cc1cccc(C[C@@H]2NC(=O)[C@H](CC(=O)O)NC(=O)[C@H](Cc3ccc(OCC(=O)O)cc3)NC(=O)[C@H](CCCNC(=N)N)NC(=O)CSC[C@@H](C(=O)N[C@@H](CCN)C(=O)NCCCCCCCCCCC(=O)O)NC(=O)[C@H]([C@@H](C)O)NC(=O)[C@H](C(C)C)NC(=O)[C@H](CC3CCCCC3)NC(=O)[C@H](CCN)NC(=O)[C@@H](CC(C)C)NC(=O)[C@H](CCCN)NC(=O)[C@H](Cc3ccc(OCC(=O)O)cc3)NC(=O)[C@H](Cc3ccc(-c4ccccc4)cc3)NC(=O)[C@H](C(C)(C)O)NC2=O)c1` [Compound 2109] ({CH2CO}-RY(Carboxymethyl)D[Phe(3-Me)][Val(3-OH)][Bip]Y(Carboxymethyl)[Orn][dL][Dab][Cha]VTC[Dab][Aun]-OH; thioether N-14): the IC50 is 22.2 nM. `Cc1cccc(C[C@@H]2NC(=O)[C@H](CC(=O)O)NC(=O)[C@H](Cc3ccc(OCC(=O)O)cc3)NC(=O)[C@H](CCCNC(=N)N)NC(=O)CSC[C@@H](C(=O)N[C@@H](CCN)C(=O)NCCCCCCCCCCC(=O)O)NC(=O)[C@H](CO)NC(=O)[C@H](C(C)C)NC(=O)[C@H](CC3CCCCC3)NC(=O)[C@H](CCN)NC(=O)[C@@H](CC(C)C)NC(=O)[C@H](CCCN)NC(=O)[C@H](Cc3ccc(OCC(=O)O)cc3)NC(=O)[C@H](Cc3ccc(-c4ccccc4)cc3)NC(=O)[C@H](C(C)(C)O)NC2=O)c1` [Compound 2110] ({CH2CO}-RY(Carboxymethyl)D[Phe(3-Me)][Val(3-OH)][Bip]Y(Carboxymethyl)[Orn][dL][Dab][Cha]VSC[Dab][Aun]-OH; thioether N-14): the half-maximal inhibitory concentration (IC50) is 24.1 nM.
